In patent publication US20240199571A1, “THIOPHENE COMPOUND AND APPLICATION THEREOF” (MEDSHINE DISCOVERY INC., priority 2021, published 2024):
Counter-ions that a name gives are not always drawn.

Tested on: human small cell lung cancer NCI-H1417 cell subcutaneous xenograft tumor
Assay: Experiment 5: in vivo pharmacodynamic study, NCI-H1417 subcutaneous xenograft tumor in CB17-SCID mice
Settings: p.o.; for Mean tumor volume ± SEM (mm^3) (Day 28): day 28 after administration; for TGI (%): tumor volume at day 28
Excerpt: Experiment 5: In Vivo Pharmacodynamic Study of Compounds on CB17-SCID Mouse Model of Human Small Cell Lung Cancer NCI-H1417 Cell Subcutaneous Xenograft Tumor
The purpose of this experiment was to evaluate the in vivo efficacy of the compounds of the present disclosure on CB17-SCID mouse model of human small cell lung cancer NCI-H1417 cell subcutaneous xenograft tumor.
5.2 Experimental Animals: • Species: mice • Strain: CB17-SCID mice • Week age and weight: 6-8 weeks old, 18 to 22 grams • Gender: Female • Supplier: Beijing Vital River Laboratory Animal Technology Co., Ltd.
Human lung cancer cells NCI-H1417 were cultured in vitro in suspension in RPMI 1640 medium with 10% fetal bovine serum, 100 U/mL penicillin, and 100 μg/mL streptomycin at 37° C. in a 5% CO2 cell culture incubator. Routine digestion and passage treatment were performed twice a week. When the number of cells reached the required number, the cells were counted and resuspended in PBS at a density of 10×10^6 cells/200 μL.
0.2 mL of NCI-H1417 tumor cells (containing 10×10^6 cells) suspension (PBS: matrix gel=1:1) was subcutaneously inoculated on the right back of mice, and in pharmacodynamic experiments, on the 16th day after cell inoculation, when the average tumor volume reached 86 mm^3, the subjects were randomly grouped and the administration started.
The experimental vehicle was 5% dimethyl sulfoxide/95% (10% Solutol) solution. Preparation method: 3.8 mL of […] was taken and added to 34.2 mL of double-distilled water, 2 mL of dimethyl sulfoxide was added thereto, and the mixture was mixed well. The test substance was dissolved with the vehicle, prepared as a homogeneous solution of a certain concentration, and stored at 4° C.
The experimental indicator was to examine whether tumor growth was inhibited, delayed, or cured. The tumor diameter was measured twice a week using vernier calipers. The calculation formula of tumor volume is V=0.5a×b^2, wherein a and b represent the long and short diameters of the tumor respectively.
The tumor inhibitory efficacy of compounds was evaluated by TGI (%). TGI (%) reflects the tumor growth inhibition rate. Calculation of TGI (%): TGI (%)=[1−(Average tumor volume at the end of administration in a certain treatment group−Average tumor volume at the beginning of administration in this treatment group)/(Average tumor volume at the end of treatment in the vehicle control group−Average tumor volume at the beginning of treatment in the vehicle control group)]×100%.

Structure (SMILES)	Mean tumor volume ± SEM (mm^3) (Day 28) (30 mg/kg, BID)	TGI (%) (30 mg/kg, BID)	Mean tumor volume ± SEM (mm^3) (Day 28) (5 mg/kg, BID)	TGI (%) (5 mg/kg, BID)	Mean tumor volume ± SEM (mm^3) (Day 28) (5 mg/kg, QD)	TGI (%) (5 mg/kg, QD)	Mean tumor volume ± SEM (mm^3) (Day 28) (10 mg/kg, QD)	TGI (%) (10 mg/kg, QD)
CC(C)(CO)n1cc2cc(-c3sc(C(=O)N4CCC[C@@H](N)C4)cc3-c3ccc(C#N)c(F)c3)ccc2n1 [Hydrochloride of compound 87]	67 ± 5	105.17						
CN[C@@H]1CCCN(C(=O)c2cc(-c3ccc(C#N)c(F)c3)c(-c3cc4nnn(CC(C)(C)O)c4c(F)c3F)s2)C1 [Hydrochloride of compound 98]			34 ± 1	114.20	44 ± 2	111.58	38 ± 3	113.35
